Laboratory results from US20230097700A1, “AZETIDINE SULFONAMIDE COMPOUND” (DAIICHI SANKYO COMPANY, LIMITED, priority 2019, published 2023).

Columns and labels:
[1] = test system: IFN-α production in mouse spleen cells; experiment: IFN-α production in mouse spleen cells stimulated with TLR9 ligand CpG-ODN D35; type: cell-based, mouse (C57BL/6J)
Method: The concentration of test substance added is 1 nM to 300 nM. The graph represents a curve showing response to concentration of a test substance, with the IFN-α production of a group not containing a test substance being specified as 100% and the IFN-α production of a group not stimulated being specified as 0%.
IFN-α production by stimulation with TLR9 ligand CpG-ODN D35 activating pDC was evaluated. Spleen cells were prepared from a C57BL/6J mouse euthanized in the same manner as in Test Example 1 and seeded to a 96-well round-bottom plate. Test substance dissolved in DMSO or vehicle (DMSO) was added to culture medium. After pre-incubation was carried out for 30 minutes, CpG-ODN […] (final concentration 1 μM) was added. Culture was carried out at 37° C. in 5% CO2. After culture was carried out for 24 hours, the culture supernatant was recovered. The concentration of IFN-α in the supernatant was measured by ELISA kit (Mouse IFN-alpha Platinum ELISA Kit, eBioscience). With the IFN-α production of a group not containing a test substance being specified as 100% and the IFN-α production of a group not activated being specified as 0%, relative values of IFN-α production of individual wells (IFN-α production rate, % of vehicle) were calculated. The values of “% of vehicle” of IFN-α production were entered in analysis software Prism (Version 5.0, GraphPad Software). […]

[2] = test system: activated T cells (CD4+ T cells derived from the mouse spleen); experiment: Incorporation of 3H-thymidine into activated T cells; type: cell-based, mouse (C57BL/6J); settings: 3H-thymidine incorporation, mouse spleen CD4+ T cells activated with Dynabeads Mouse T-Activator CD3/CD28
Outline: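 CD4+ T cells were isolated from C57BL/6J mouse spleen cells using the EasySep Mouse CD4+ T cell isolation kit and seeded into 96-well round-bottom plates. They were activated with Dynabeads Mouse T-Activator CD3/CD28 alongside test substance in DMSO, then cultured at 37° C. in 5% CO2. 3H-thymidine uptake was harvested onto UniFilter-96 GF/B plates and counted on a TopCount NXT. Results were normalized to vehicle (100%) and non-activated wells (0%), and IC50 was fitted in Prism.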

[3] = test system: ConA induced mouse cytokine production model; experiment: ConA induced mouse cytokine production model, IFN-γ in the plasma; type: in vivo, mouse (Balb/c); settings: one hour before second ConA treatment
Method: In this test, mice were treated with concanavalin A (ConA) to activate lymphocytes and the medicinal effect of a test substance was evaluated based on the production of IFN-γ. A system in which cytokine production based on expression of LAT1 is induced, by treating mice with ConA twice at optimal timing, was established. To female Balb/c mice of 7 weeks old, a ConA solution (0.4 mg/mL, Concanavalin A, WAKO, 037-08774) prepared with PBS (D-PBS (−), WAKO, 049-29793) was administered (4 mg/kg, twice at an interval of 16 hours) through the tail vein. Four hours later, under anesthesia by isoflurane inhalation, blood was taken from the posterior vena cava of each of the mice. The blood was centrifuged to collect the plasma. The concentration of IFN-γ in the in plasma was measured by AlphaLISA immunoassay kit (Mouse Interferon-gamma (mIFN-γ) Kit, PerkinElmer, AL501C). Test substance was dissolved in 0.5% MC or mushed in an agate mortar, suspended in 0.5% MC to prepare a solution to be administered (1 or 3 mg/mL) and orally administered one hour before the second treatment with ConA so as to be 10 mL/kg (10 or 30 mg/kg. To Vehicle group, 0.5% MC was administered similarly so as to be 10 mL/kg). Test substances were evaluated. Suppression rates (%) were calculated in accordance with the following expression. Suppression rate (%)=100−[(average value of test substance administration group−average value of Normal group)/(average value of Vehicle group−average value of Normal group)×100] Whether the data of two groups, Normal group and Vehicle group, differ or not was determined by Student's or Welch's t test. Whether the data of Vehicle group and a test substance administration group are different or not was analyzed by parametric multiple comparison test, Dunnett test. The compounds (test substances) suppressed IFN-γ production in a dose-dependent manner.

Compound | IC50 ([1]; CpG-ODN stimulation 1 μM, 24 hours, ELISA) [µM] | suppressive action on IFN-α production ([1]; test substance 1 nM to 300 nM) | IC50 [2] [µM] | Percent suppression (%) ([3]; 10 mg/kg oral) | Percent suppression (%) ([3]; 30 mg/kg oral)
N[C@@H](Cc1cccc(S(=O)(=O)N2CC(Oc3cccc(F)c3)(c3ccccc3)C2)c1)C(=O)O [Example 1, (2S)-2-Amino-3-(3-{[3-(3-fluorophenoxy)-3-phenylazetidin-1-yl]sulfonyl)phenyl)propanoic acid] | 0.013 | concentration-dependent suppressive action | 0.02 | – | –
Cl.[2H]c1c([2H])c([2H])c(OC2(c3ccccc3)CN(S(=O)(=O)c3cccc(C[C@H](N)C(=O)OC(C(=O)N(C)C)C(C)C)c3)C2)c([2H])c1[2H] (stereo partly drawn) [Example 25, 1-(Dimethylamino)-3-methyl-1-oxobutan-2-yl (2S)-2-amino-3-(3-{3-phenyl-3-[(^2H5)phenyloxy]azetidin-1-sulfonyl}phenyl)propanoate monohydrochloride] | – | – | – | 31 | 51
Cl.[2H]c1c([2H])c([2H])c(OC2(c3ccc(F)cc3)CN(S(=O)(=O)c3cccc(C[C@H](N)C(=O)OC(C(=O)N(C)C)C(C)C)c3)C2)c([2H])c1[2H] (stereo partly drawn) [Example 27, 1-(Dimethylamino)-3-methyl-1-oxobutan-2-yl (2S)-2-amino-3-(3-{3-(4-fluorophenyl)-3-[(^2H5)phenyloxy]azetidin-1-sulfonyl}phenyl)propanoate monohydrochloride] | – | – | – | 47 | 58
CC(OC(=O)[C@@H](N)Cc1cccc(S(=O)(=O)N2CC(Oc3ccc(F)cc3)(c3ccc(F)cn3)C2)c1)C(=O)N(C)C.Cl.Cl (stereo partly drawn) [Example 62, 1-(Dimethylamino)-1-oxopurpan-2-yl (2S)-2-amino-3-(3-{[3-(4-fluorophenoxy)-3-(5-fluoropyridin-2-yl)azetidin-1-yl]sulfonyl}phenyl)propanoate dihydrochloride] | – | – | – | 43 | 54
CC(C)C(OC(=O)[C@@H](N)Cc1cccc(S(=O)(=O)N2CC(Oc3ccc(F)cc3)(c3ccc(F)cn3)C2)c1)C(=O)N(C)C.Cl.Cl (stereo partly drawn) [Example 69, 1-(Dimethylamino)-3-methyl-1-oxobutan-2-yl (2S)-2-amino-3-(3-{[3-(4-fluorophenoxy)-3-(5-fluoropyridin-2-yl)azetidin-1-yl]sulfonyl}phenyl)propanoate dihydrochloride] | – | – | – | 33 | 44
CC(C)C(OC(=O)[C@@H](N)Cc1cccc(S(=O)(=O)N2CC(Oc3ccccc3)(c3ccccc3)C2)c1)C(=O)N(C)C.Cl (stereo partly drawn) [Example 91, 1-(Dimethylamino)-3-methyl-1-oxobutan-2-yl (2S)-2-amino-3-[3-(3-phenoxy-3-phenylazetidin-1-sulfonyl)phenyl]propanoate monohydrochloride] | – | – | – | 55 | 53
CC(C)C(OC(=O)[C@@H](N)Cc1cccc(S(=O)(=O)N2CC(Oc3ccccc3)(c3ccc(F)cc3)C2)c1)C(=O)N(C)C.Cl (stereo partly drawn) [Example 93, 1-(Dimethylamino)-3-methyl-1-oxobutan-2-yl (2S)-2-amino-3-(3-{[3-(4-fluorophenyl)-3-phenoxyazetidin-1-yl]sulfonyl}phenyl)propanoate monohydrochloride] | – | – | – | 46 | 34
